Experimental data: PMC6721044, “Ratiometric BRET Measurements of ATP with a Genetically-Encoded Luminescent Sensor” (Sensors (Basel, Switzerland), 2019)

Biological target: T1, ARSeNL (mScarlet-ε-NanoLuc); ε subunit of the ATP synthase from Bacillus subtilis (Bacillus subtilis, UniProt P37812)
T1 construct: gene atpC; isolated ε subunit (from ATeam1.03) flanked by N-terminal mScarlet and C-terminal NanoLuc as reporters
Experiment: BRET ratio (mScarlet/NanoLuc) dose-response, microplate reader, Hill fit
Type: binding
Conditions: read-out: KD (apparent)

T1 sequence (P37812 whole entry): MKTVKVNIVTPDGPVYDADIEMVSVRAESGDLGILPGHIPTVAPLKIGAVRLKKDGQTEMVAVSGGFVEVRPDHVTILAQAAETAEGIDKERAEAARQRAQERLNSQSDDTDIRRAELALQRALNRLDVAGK

Compound: Nc1ncnc2c1ncn2[C@@H]1O[C@H](COP(=O)(O)OP(=O)(O)OP(=O)(O)O)[C@@H](O)[C@H]1O [ATP]
- Kd: 1100 ± 100 µM
